The results in this text go back to the C3SDB collision cross section collection.

Each structure is given as a SMILES string. Where “and” joins values, the source holds several entries; their conditions need not be identical. Identical values can stand only once.

For data set [1] the following is noted: instrument: DT, single field, calibrated with ESI Low Concentration Tuning Mix (Agilent).
The conditions of data set [2]: [M+H]+; instrument: TW; calibrated with polyalanine and drug standards.

On to `Cn1cnc2c(ncn2[C@@H]2O[C@H](CO)[C@@H](O)[C@H]2O)c1=N` [1-METHYLADENOSINE], for which the “collision cross section (N2)” value was 160 Å² and 164.7 Å² in data set [1] ([M+H]+); 170.7 Å² in data set [1] ([M+Na]+); 162.7 Å² in data set [1] ([M-H]-).
Consider `CC(=O)c1ccc(O)cc1O` [2',4'-DIHYDROXYACETOPHENONE], for which the “collision cross section (N2)” value in data set [1] ([M+H]+) came out at 127.2 Å²; in data set [1] ([M-H]-) it was 126.3 Å².
Regarding `O=c1cccc(O)[nH]1` [2,6-DIHYDROXYPYRIDINE], the “collision cross section (N2)” value in data set [1] ([M-H]-) is given as 113.8 Å².
Take `CC(C)(N)C(=O)O` [2-AMINOISOBUTYRATE]: the “collision cross section (N2)” value in data set [1] ([M+H]+) stood at 123.8 Å².
Regarding `Nc1ccccc1O` [2-AMINOPHENOL], the “collision cross section (N2)” value in data set [1] ([M+H]+) is 118.3 Å² and 124.8 Å²; in data set [1] ([M-H]-), 118 Å².
With `O=C(O)C(O)c1ccc(O)c(O)c1` (stereo not given) [3,4 DIHYDROXYMANDELATE], the “collision cross section (N2)” value in data set [1] ([M-H]-) is listed as 137.4 Å².
Take `O=C(O)C1=CC(=O)[C@@H](O)[C@H](O)C1` [3-DEHYDROSHIKIMATE]: the results for the “collision cross section (N2)” value in data set [1] ([M+Na]+) and in data set [1] ([M-H]-) were 149.1 Å² and 132 Å², respectively.
Take `OCc1cccc(O)c1` [3-HYDROXYBENZYL ALCOHOL]: the “collision cross section (N2)” value in data set [1] ([M-H]-) is reported as 122.3 Å².
As to `CC(O)(CC(=O)O)CC(=O)O` [3-HYDROXYMETHYLGLUTARATE], the “collision cross section (N2)” value in data set [1] ([M+Na]+) stood at 135.9 Å²; in data set [1] ([M-H]-) it was 126.5 Å².
`COc1cc(C(O)C(=O)O)ccc1O` (stereo not given) [3-METHOXY-4-HYDROXYMANDELATE]: the “collision cross section (N2)” value in data set [1] ([M-H]-) is recorded as 143.5 Å².
As to `Cn1cnc(N)c2ncnc1-2` [3-METHYLADENINE], the “collision cross section (N2)” value in data set [1] ([M+H]+) stood at 126.3 Å².
On the same count and under the same terms, as for `Cn1cncc1CCN` [3-METHYLHISTAMINE], the figure is 123.8 Å².
For `O=C(O)/C=C/c1ccc(O)cc1` [4-COUMARATE], the “collision cross section (N2)” value in data set [1] ([M-H]-) came out at 131.1 Å².
For `O=C(O)Cc1cnc[nH]1` [4-IMIDAZOLEACETATE], the “collision cross section (N2)” value in data set [1] ([M+H]+) was 123.9 Å².
Turning to `Cc1ncc(CO)c(C(=O)O)c1O` [4-PYRIDOXATE], the “collision cross section (N2)” value is reported as 135.5 Å² in data set [1] ([M+H]+), 147.4 Å² in data set [1] ([M+K]+), 150.2 Å² in data set [1] ([M+Na]+) and 130.6 Å² in data set [1] ([M-H]-).
Take `O=C(O)Cc1c[nH]c2ccc(O)cc12` [5-HYDROXYINDOLEACETATE]: the “collision cross section (N2)” value in data set [1] ([M+H]+) amounted to 140.9 Å²; in data set [1] ([M+Na]+) it was 148.4 Å²; in data set [1] ([M-H]-), 137.1 Å².
Turning to `NC[C@H](O)CC[C@H](N)C(=O)O` [5-HYDROXYLYSINE], the “collision cross section (N2)” value in data set [1] ([M+H]+) turned out to be 134.9 Å²; in data set [1] ([M+Na]+) it was 137.5 Å²; in data set [1] ([M-H]-), 134 Å².
As for `Cc1cnc(=O)[nH]c1N` [5-METHYLCYTOSINE], the “collision cross section (N2)” value is 121 Å² and 125.4 Å² in data set [1] ([M+H]+); 135.5 Å² in data set [1] ([M+Na]+).
As to `Nc1ncnc2c1ncn2[C@@H]1O[C@H](COP(=O)(O)O)[C@@H](O)[C@H]1O` [ADENOSINE MONOPHOSPHATE], the “collision cross section (N2)” value in data set [1] ([M+H]+) is given as 171.4 Å²; in data set [1] ([M+Na]+), 177 Å².
Take `Nc1ncnc2c1ncn2[C@@H]1O[C@H](COP(=O)(O)OP(=O)(O)OP(=O)(O)O)[C@@H](O)[C@H]1O` [ADENOSINE TRIPHOSPHATE]: the “collision cross section (N2)” value in data set [1] ([M+H]+) was 196.6 Å² and 196.9 Å²; in data set [1] ([M+Na-2H]-), 193.5 Å²; in data set [1] ([M+Na]+), 204 Å² and 204.2 Å²; in data set [1] ([M-H]-) it was 188.2 Å² and 188.3 Å².
On to `Nc1ncnc2c1ncn2[C@@H]1O[C@H](COP(=O)(O)O)[C@@H](O)[C@H]1O` [ADENOSINE-MONOPHOSPHATE], for which the figures for the “collision cross section (N2)” value in data set [1] ([M+Na-2H]-) and in data set [1] ([M-H]-) were 179.5 Å² and 173.1 Å², respectively.
In the case of `OC[C@H]1O[C@H](O)[C@H](O)[C@@H](O)[C@@H]1O` [ALPHA-D-GLUCOSE], in data set [1] ([M+Na]+), the “collision cross section (N2)” value was 146.6 Å².
The same measure, in the same setting: then `OC1OC[C@H](O)[C@H](O)[C@H]1O` (stereo not given in full) [ARABINOSE], with 134.6 Å².
In the case of `O=C1O[C@H]([C@@H](O)CO)C(O)=C1O` [ASCORBATE], the “collision cross section (N2)” value in data set [1] ([M+Na]+) worked out at 141.6 Å²; in data set [1] ([M-H]-) it was 127.7 Å².
For the compound `N[C@@H](CC(=O)O)C(=O)O` [ASPARTATE], the “collision cross section (N2)” value in data set [1] ([M-H]-) is 118.6 Å² and 118.7 Å².
`O=P(O)(O)OC(CO)CO` [BETA-GLYCEROPHOSPHATE]: the results for the “collision cross section (N2)” value in data set [1] ([M+Na-2H]-), in data set [1] ([M+Na]+) and in data set [1] ([M-H]-) were 147.2 Å², 140.5 Å² and 126.3 Å², respectively.
Regarding `CCCCC(CC)COC(=O)c1ccccc1C(=O)OCC(CC)CCCC` (stereo not given) [BIS(2-ETHYLHEXYL)PHTHALATE], the “collision cross section (N2)” value came out at 203 Å² in data set [1] ([M+H2O-H]-) and 212.2 Å² in data set [1] ([M+H]+).
As for `NCCOP(=O)(O)OP(=O)(O)OC[C@H]1O[C@@H](n2ccc(N)nc2=O)[C@H](O)[C@@H]1O` [CDP-ETHANOLAMINE], the “collision cross section (N2)” value is reported as 186.1 Å² in data set [1] ([M+Na-2H]-) and 188.2 Å² in data set [1] ([M-H]-).
`C[C@H](CCC(=O)O)[C@H]1CC[C@H]2[C@@H]3[C@H](O)C[C@@H]4C[C@H](O)CC[C@]4(C)[C@H]3C[C@H](O)[C@]12C` [CHOLATE]: the entries for the “collision cross section (N2)” value in data set [1] ([M+Na]+) and in data set [1] ([M-H]-) were 197.5 Å² and 203.1 Å², respectively.
In the case of `CCCCCCCCCCCCCCCC(=O)O[C@H]1CC[C@@]2(C)C(=CC[C@H]3[C@@H]4CC[C@H]([C@H](C)CCCC(C)C)[C@@]4(C)CC[C@@H]32)C1` [CHOLESTERYL PALMITATE], the “collision cross section (N2)” value in data set [1] ([M+Na]+) was found to be 286.3 Å².
In the case of `C[N+](C)(C)CCOP(=O)([O-])OP(=O)(O)OC[C@H]1O[C@@H](n2ccc(N)nc2=O)[C@H](O)[C@@H]1O` [CITICOLINE], the “collision cross section (N2)” value in data set [1] ([M+H]+) is on record as 198.3 Å²; in data set [1] ([M+Na-2H]-), 210.2 Å²; in data set [1] ([M+Na]+) it was 207.8 Å²; in data set [1] ([M-H]-) it was 205.9 Å².
The like results for `CC(C)(COP(=O)(O)OP(=O)(O)OC[C@H]1O[C@@H](n2cnc3c(N)ncnc32)[C@H](O)[C@@H]1OP(=O)(O)O)[C@@H](O)C(=O)NCCC(=O)NCCS` [COENZYME A] were, in that order, 241.4 Å², 246.2 Å², 255.5 Å² and 244.4 Å².
Turning to `C[C@]12CCC(=O)C=C1CC[C@@H]1[C@@H]2CC[C@@]2(C)[C@H]1CC[C@]2(O)C(=O)CO` [CORTEXOLONE], the “collision cross section (N2)” value in data set [1] ([M+H]+) stood at 187.7 Å²; in data set [1] ([M+Na]+), 211 Å².
For the compound `C[C@]12C[C@H](O)[C@H]3[C@@H](CCC4=CC(=O)CC[C@@]43C)[C@@H]1CC[C@@H]2C(=O)CO` [CORTICOSTERONE], the entries for the “collision cross section (N2)” value in data set [1] ([M+H]+), in data set [1] ([M+K]+) and in data set [1] ([M-H]-) were 186.9 Å², 208.4 Å² and 186.8 Å², respectively.
`C[C@]12CCC(=O)C=C1CC[C@@H]1[C@@H]2[C@@H](O)C[C@@]2(C)[C@H]1CC[C@]2(O)C(=O)CO` [CORTISOL]: the “collision cross section (N2)” value in data set [1] ([M+H]+) worked out at 188.6 Å²; in data set [1] ([M+K]+), 210.7 Å²; in data set [1] ([M+Na]+) it was 212.9 Å²; in data set [1] ([M-H]-), 191.9 Å².
Regarding `Nc1ncnc2c1ncn2[C@@H]1O[C@@H]2COP(=O)(O)O[C@H]2[C@H]1O` [CYCLIC AMP], the “collision cross section (N2)” value in data set [1] ([M+H]+) is 172.6 Å² and 176.8 Å²; in data set [1] ([M+Na]+), 181 Å² and 188.6 Å² and 188.8 Å²; in data set [1] ([M-H]-), 171.8 Å² and 172 Å².
For `Nc1ccn([C@@H]2O[C@H](COP(=O)(O)OP(=O)(O)O)[C@@H](O)[C@H]2O)c(=O)n1` [CYTIDINE DIPHOSPHATE], the “collision cross section (N2)” value came out at 175.6 Å² in data set [1] ([M+H]+), 176.3 Å² in data set [1] ([M+Na-2H]-), 179.9 Å² in data set [1] ([M+Na]+) and 174.2 Å² in data set [1] ([M-H]-).
With `O=C1O[C@H]([C@@H](O)CO)C(=O)C1=O` [DEHYDROASCORBATE], the “collision cross section (N2)” value in data set [1] ([M-H]-) worked out at 127.8 Å².
As for `Nc1ncnc2c1ncn2[C@H]1C[C@H](O)[C@@H](COP(=O)(O)OP(=O)(O)OP(=O)(O)O)O1` [DEOXYADENOSINE TRIPHOSPHATE], the “collision cross section (N2)” value in data set [1] ([M+H]+) is recorded as 194.8 Å²; in data set [1] ([M+Na-2H]-), 185.9 Å²; in data set [1] ([M+Na]+), 202 Å²; in data set [1] ([M-H]-) it was 186.5 Å².
For the compound `C[N+](C)(C)CCCC(=O)[O-]` [DEOXYCARNITINE], the “collision cross section (N2)” value in data set [1] ([M+H]+) was 129.7 Å².
Regarding `CC(=O)OCC(=O)[C@H]1CC[C@H]2[C@@H]3CCC4=CC(=O)CC[C@]4(C)[C@H]3CC[C@]12C` [DEOXYCORTICOSTERONE ACETATE], the “collision cross section (N2)” value in data set [1] ([M+H]+) was found to be 196.9 Å².
In the case of `Nc1nc(=O)c2ncn([C@H]3C[C@H](O)[C@@H](CO)O3)c2[nH]1` [DEOXYGUANOSINE], the “collision cross section (N2)” value in data set [1] ([M+K]+) is 171.4 Å²; in data set [1] ([M+Na]+), 171.7 Å²; in data set [1] ([M-H]-), 159.1 Å².
Consider `O=c1ccn([C@H]2C[C@H](O)[C@@H](COP(=O)(O)OP(=O)(O)OP(=O)(O)O)O2)c(=O)[nH]1` [DEOXYURIDINE TRIPHOSPHATE], for which the results for the “collision cross section (N2)” value in data set [1] ([M+Na-2H]-), in data set [1] ([M+Na]+) and in data set [1] ([M-H]-) were 188.9 Å², 185.3 Å² and 178.6 Å², respectively.
On to `O=c1ccn([C@H]2C[C@H](O)[C@@H](CO)O2)c(=O)[nH]1` [DEOXYURIDINE], for which the “collision cross section (N2)” value in data set [1] ([M+Na]+) is recorded as 156.4 Å²; in data set [1] ([M-H]-), 148.9 Å².
In the case of `NC(Cc1ccc(F)cc1)C(=O)O` (stereo not given) [p-FLUOROPHENYLALANINE], in data set [2], the “collision cross section (N2)” value stood at 141.1 Å².
